Test results as given in patent publication US6147098A, “Substituted guanidines and diaminonitroethenes, their preparation and use” (Novo Nordisk A/S, priority 1998, dated 2000).

What was measured:
[1] = system: rin 5F cells; experiment: 86Rb+ efflux from a β-cell line (increased Rb-efflux in rin 5F cells); assay type: cell-based; settings: 1 h at room temperature
Protocol: An opening of KATP -channels will result in an efflux of potassium ions. By measuring the release of ^86 Rb^+ (a radioactive potassium mimic) from e.g. beta-cells pre-incubated in the presence of ^86 Rb^+ the effect of compounds acting as potassium channel openers can be determined. The test expresses the ability of the compounds to regulate the secretion of insulin from the beta-cells.
^86 Rb^+ efflux from a β-cell line
The RIN 5F cell line was grown in RPMI 1640 with Glutamax I, supplemented with 10% fetal calf serum (from GibcoBRL, Scotland, UK) and maintained in an atmosphere of 5% CO2 /95% air at 37° C. The cells were detached with a Trypsin-EDTA solution (from GibcoBRL, Scotland, UK), resuspended in medium, added 1 mCi/ml ^86 Rb^+ and replated into microtiter plates (96 well cluster 3596, sterile, from Costar Corporation,Mass., USA) at a density of 50000 cells/well in 100 μl/well, and grown 24 hours before use in assay.
The plates were washed 4 times with Ringer buffer (150 mM NaCl, 10 mM Hepes, 3.0 mM KCl, 1.0 mM CaCl2, 20 mM Sucrose, pH 7.1). Eighty μl Ringer buffer and 1 μl control- or test compound dissolved in DMSO was added. […] The plates were counted in TopCount (Packard Instrument Company, CT, USA) for 1 min/well at the 32p program. […]

[2] = system: rat aorta rings; experiment: Relaxation of rat aorta rings; assay type: cell-based; settings: phenylephrine-contracted rat thoracic aorta rings; cumulative addition; read-out: EC50 (concentration required to evoke a 50% relaxation of the tissue)
Protocol: The activity of the compounds as potassium channel openers can also be measured as relaxation of rat aorta rings according to the following procedure:
A section of rat thoracic aorta between the aortic arch and the diaphragm was dissected out and mounted as ring preparations as described by Taylor P. D. et al, Brit J. Pharmacol, 111, 42-48 (1994).
After a 45 min. equilibration period under a tension of 2 g, the preparations were contracted to achieve 80% of the maximum response using the required concentration of phenylephrine. When the phenylephrine response reached a plateau, potential vasodilatory agents were added cumulatively to the bath in small volumes using half log molar increments at 2 min intervals. Relaxation was expressed at the percentage of the contracted tension. The potency of a compound was expressed as the concentration required to evoke a 50% relaxation of the tissue.

[3] = system: IDDM; settings: animal experiments and early non-blinded experiments in humans; cited from earlier work

CC(C)CCN=C(NC#N)Nc1cc(C(F)(F)F)cc(C(F)(F)F)c1 [Example 1, N-Cyano-N'-(3,5-bis(trifluoromethyl)phenyl)-N"-(3-methylbutyl)guanidine]
EC50 [1]: 2.6 µM
EC50 [2]: 5.6 µM

NC(=O)c1cccnc1 [Nicotinamide]
role against IDDM and cytokine/immune mediated beta-cell destruction [3]: protective role
